{"source": "patent US12077503B2", "about": "“Substituted cyclic amides and their use as herbicides” (FMC CORPORATION, priority 2015, dated 2024)", "format_in_all_cases": "in vivo", "key": {"[1]": {"system": "velvetleaf (Abutilon theophrasti)", "test": "Test G Pre-Emergence Protocol", "settings": "Abutilon theophrasti, pre-emergence, 312 h, evaluated after 13 days", "in_short": "(§1)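 Spraying took place one day after sowing, at 15.625, 62.5 or 250 g/ha, using an acetone/water (50:50) spray solution containing 0.5% Tween 20. Plants were kept under glasshouse conditions (24/16 °C, 14 h light, 65% humidity, watered twice daily), and injury was rated 0–100 at day 13.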"}, "[2]": {"system": "barnyardgrass (Echinochloa crus-galli)", "test": "Test G Pre-Emergence Protocol", "settings": "Echinochloa crus-galli, pre-emergence, 312 h, evaluated after 13 days", "in_short": "as §1"}, "[3]": {"system": "redroot pigweed (Amaranthus retroflexus)", "test": "Test G Pre-Emergence Protocol", "settings": "Amaranthus retroflexus, pre-emergence, 312 h, evaluated after 13 days", "in_short": "as §1"}, "[4]": {"system": "giant foxtail (Setaria faberi)", "test": "Test G Pre-Emergence Protocol", "settings": "Setaria faberi, pre-emergence, 312 h, evaluated after 13 days", "in_short": "as §1"}, "corn (Zea mays) [5]": {"system": "corn (Zea mays)", "test": "Test G Pre-Emergence Protocol", "settings": "Zea mays, pre-emergence, 312 h, evaluated after 13 days", "in_short": "as §1"}, "[6]": {"system": "ivy-leaved morning glory (Ipomoea hederacea)", "test": "Test G Pre-Emergence Protocol", "settings": "Ipomoea, pre-emergence, 312 h, evaluated after 13 days", "in_short": "as §1"}, "[7]": {"system": "velvetleaf (Abutilon theophrasti)", "test": "Test G Post-Emergence Protocol", "settings": "Abutilon theophrasti, post-emergence, 312 h, read-out: Velvetleaf damage rating", "in_short": "(§2)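 Seedlings grown 8 days in soil in a glasshouse (24/16 °C day/night, 14 h light, 65% humidity) were sprayed post-emergence with compound in acetone/water 50:50 plus 0.5% Tween 20 at 15.625, 62.5 or 250 g/ha. Damage was scored after 13 days on a 0–100 scale (100 = total damage).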"}, "[8]": {"system": "barnyardgrass (Echinochloa crus-galli)", "test": "Test G Post-Emergence Protocol", "settings": "Echinochloa crus-galli, post-emergence, 312 h, read-out: Barnyardgrass damage rating", "in_short": "as §2"}, "[9]": {"system": "redroot pigweed (Amaranthus retroflexus)", "test": "Test G Post-Emergence Protocol", "settings": "Amaranthus retroflexus, post-emergence, 312 h, read-out: Pigweed, Redroot damage rating", "in_short": "as §2"}, "[10]": {"system": "giant foxtail (Setaria faberi)", "test": "Test G Post-Emergence Protocol", "settings": "Setaria faberi, post-emergence, 312 h, read-out: Foxtail, Giant damage rating", "in_short": "as §2"}, "corn (Zea mays) [11]": {"system": "corn (Zea mays)", "test": "Test G Post-Emergence Protocol", "settings": "Zea mays, post-emergence, 312 h, read-out: Corn damage rating", "in_short": "as §2"}, "[12]": {"system": "ivy-leaved morning glory (Ipomoea hederacea)", "test": "Test G Post-Emergence Protocol", "settings": "Ipomoea, post-emergence, 312 h, read-out: Morningglory, Ivy-leaved damage rating", "in_short": "as §2"}, "[13]": {"settings": "15.625 g ai/ha, evaluated after 13 days (100=total damage to plant; 0=no damage to plant)"}, "[14]": {"settings": "62.5 g ai/ha, evaluated after 13 days, 100=total damage to plant, 0=no damage to plant"}, "[15]": {"settings": "250 g ai/ha, evaluated after 13 days, 100=total damage to plant, 0=no damage to plant"}}}
{"smiles": "CN1C[C@@H](c2ccc(C(F)(F)F)cc2)[C@H](C(=O)Nc2cnc(Cl)cn2)C1=O", "note": "(racemic) [Compound 1649]", "values": [{"measurement": "pest or weed control at 15.625 g/ha", "setting": "[1]; 15.625 g ai/ha, read-out: Velvetleaf damage rating (100=total damage to plant; 0=no damage to plant)", "result": 0, "unit": "%"}, {"measurement": "pest or weed control at 62.5 g/ha", "setting": "[1]; 62.5 g ai/ha, 100=total damage to plant, 0=no damage to plant, read-out: Velvetleaf damage rating", "result": 0, "unit": "%"}, {"measurement": "pest or weed control at 250 g/ha", "setting": "[1]; 250 g ai/ha, read-out: Velvetleaf damage rating (100=total damage to plant; 0=no damage to plant)", "result": 0, "unit": "%"}, {"measurement": "pest or weed control at 15.625 g/ha", "setting": "[2]; 15.625 g ai/ha, read-out: Barnyardgrass damage rating (100=total damage to plant; 0=no damage to plant)", "result": 0, "unit": "%"}, {"measurement": "pest or weed control at 62.5 g/ha", "setting": "[2]; 62.5 g ai/ha, 100=total damage to plant, 0=no damage to plant, read-out: Barnyardgrass damage rating", "result": 0, "unit": "%"}, {"measurement": "pest or weed control at 250 g/ha", "setting": "[2]; 250 g ai/ha, read-out: Barnyardgrass damage rating (100=total damage to plant; 0=no damage to plant)", "result": 0, "unit": "%"}, {"measurement": "pest or weed control at 15.625 g/ha", "setting": "[3]; 15.625 g ai/ha, read-out: Pigweed, Redroot damage rating (100=total damage to plant; 0=no damage to plant)", "result": 0, "unit": "%"}, {"measurement": "pest or weed control at 62.5 g/ha", "setting": "[3]; 62.5 g ai/ha, 100=total damage to plant, 0=no damage to plant, read-out: Pigweed, Redroot damage rating", "result": 20, "unit": "%"}, {"measurement": "pest or weed control at 250 g/ha", "setting": "[3]; 250 g ai/ha, read-out: Pigweed, Redroot damage rating (100=total damage to plant; 0=no damage to plant)", "result": 20, "unit": "%"}, {"measurement": "pest or weed control at 15.625 g/ha", "setting": "[4]; 15.625 g ai/ha, read-out: Foxtail, Giant damage rating (100=total damage to plant; 0=no damage to plant)", "result": 0, "unit": "%"}, {"measurement": "pest or weed control at 62.5 g/ha", "setting": "[4]; 62.5 g ai/ha, 100=total damage to plant, 0=no damage to plant, read-out: Foxtail, Giant damage rating", "result": 10, "unit": "%"}, {"measurement": "pest or weed control at 250 g/ha", "setting": "[4]; 250 g ai/ha, read-out: Foxtail, Giant damage rating (100=total damage to plant; 0=no damage to plant)", "result": 20, "unit": "%"}, {"measurement": "plant injury at 15.625 g/ha", "setting": "corn (Zea mays) [5]; 15.625 g ai/ha, read-out: Corn damage rating (100=total damage to plant; 0=no damage to plant)", "result": 0, "unit": "%"}, {"measurement": "plant injury at 62.5 g/ha", "setting": "corn (Zea mays) [5]; 62.5 g ai/ha, 100=total damage to plant, 0=no damage to plant, read-out: Corn damage rating", "result": 0, "unit": "%"}, {"measurement": "plant injury at 250 g/ha", "setting": "corn (Zea mays) [5]; 250 g ai/ha, read-out: Corn damage rating (100=total damage to plant; 0=no damage to plant)", "result": 0, "unit": "%"}, {"measurement": "pest or weed control at 15.625 g/ha", "setting": "[6]; 15.625 g ai/ha, read-out: Morningglory, Ivy-leaved damage rating (100=total damage to plant; 0=no damage to plant)", "result": 0, "unit": "%"}, {"measurement": "pest or weed control at 62.5 g/ha", "setting": "[6]; 62.5 g ai/ha, 100=total damage to plant, 0=no damage to plant, read-out: Morningglory, Ivy-leaved damage rating", "result": 0, "unit": "%"}, {"measurement": "pest or weed control at 250 g/ha", "setting": "[6]; 250 g ai/ha, read-out: Morningglory, Ivy-leaved damage rating (100=total damage to plant; 0=no damage to plant)", "result": 0, "unit": "%"}, {"measurement": "pest or weed control at 15.625 g/ha", "setting": "[7]; [13]", "result": 0, "unit": "%"}, {"measurement": "pest or weed control at 62.5 g/ha", "setting": "[7]; [14]", "result": 0, "unit": "%"}, {"measurement": "pest or weed control at 250 g/ha", "setting": "[7]; [15]", "result": 0, "unit": "%"}, {"measurement": "pest or weed control at 15.625 g/ha", "setting": "[8]; [13]", "result": 0, "unit": "%"}, {"measurement": "pest or weed control at 62.5 g/ha", "setting": "[8]; [14]", "result": 0, "unit": "%"}, {"measurement": "pest or weed control at 250 g/ha", "setting": "[8]; [15]", "result": 20, "unit": "%"}, {"measurement": "pest or weed control at 15.625 g/ha", "setting": "[9]; [13]", "result": 0, "unit": "%"}, {"measurement": "pest or weed control at 62.5 g/ha", "setting": "[9]; [14]", "result": 0, "unit": "%"}, {"measurement": "pest or weed control at 250 g/ha", "setting": "[9]; [15]", "result": 40, "unit": "%"}, {"measurement": "pest or weed control at 15.625 g/ha", "setting": "[10]; [13]", "result": 0, "unit": "%"}, {"measurement": "pest or weed control at 62.5 g/ha", "setting": "[10]; [14]", "result": 0, "unit": "%"}, {"measurement": "pest or weed control at 250 g/ha", "setting": "[10]; [15]", "result": 60, "unit": "%"}, {"measurement": "plant injury at 15.625 g/ha", "setting": "corn (Zea mays) [11]; [13]", "result": 0, "unit": "%"}, {"measurement": "plant injury at 62.5 g/ha", "setting": "corn (Zea mays) [11]; [14]", "result": 0, "unit": "%"}, {"measurement": "plant injury at 250 g/ha", "setting": "corn (Zea mays) [11]; [15]", "result": 0, "unit": "%"}, {"measurement": "pest or weed control at 15.625 g/ha", "setting": "[12]; [13]", "result": 0, "unit": "%"}, {"measurement": "pest or weed control at 62.5 g/ha", "setting": "[12]; [14]", "result": 0, "unit": "%"}, {"measurement": "pest or weed control at 250 g/ha", "setting": "[12]; [15]", "result": 0, "unit": "%"}]}
